Experimental data reported in PMC9475137, “Sesquiterpene lactones from Artemisia vulgaris L. as potential NO inhibitors in LPS-induced RAW264.7 macrophage cells” (Frontiers in Chemistry, 2022).
Entries after “also recorded” stand apart in the source; their conditions may differ.

Legend:
Type in all cases: cell-based
[1] = test system: NO production in LPS-induced RAW264.7 cells; experiment: Inhibition of NO production in LPS-induced RAW264.7 macrophages (Griess reagent); details: for IC50: Mus musculus, RAW264.7, pretreated 1 h with compounds (0.25–4 μM), LPS 1 μg/ml 18 h, Mean ± SD, read-out: IC50 (μM), NO inhibition toward LPS-induced RAW264.7 cells
Procedure: The level of accumulated nitrite in the culture media reflected the level of NO using the classic Griess reagent (Beyotime, Jiangsu, China). The RAW264.7 cells were seeded in a 96-well plate with a 6 ×10^4 cells/ml density for the indicated time. Then, the cells were pretreated for 1 h with test compounds (0.25–4 μM), followed by stimulation with LPS (1 μg/ml) for 18 h. Finally, 50 ul of the culture supernatant was mixed with an equal amount of the Griess reagent, and the optical densities at 570 nm were read using a microplate reader. The nitric oxide concentration of the samples was calculated according to the standard curve.

COX-2 = COX-2 expression in LPS-induced RAW264.7 cells (quantitative real-time PCR and Western blotting); details: LPS-induced RAW264.7 macrophages; qPCR and Western blotting; compound 1 at 4 μM compared with dexamethasone
Procedure: (§1) RAW264.7 cells were seeded in a six-well plate (10 × 10^5 cells/well) for the indicated time. Cells were pretreated with compound 1 (0.5, 1, and 4 μM) for 1 h and then stimulated with LPS (1 ug/mL) for 18 h. Total cellular RNA was extracted with Trizol reagent (TIANGEN, Beijing, China). One microgram of RNA per sample was reverse-transcribed into cDNA using the PrimeScript RT Reagent Kit (TAKARA, Dalian, China). qPCR assays were performed by the CFX96 Touch Real-Time PCR Detection System (Bio-Rad). The following primers were used: iNOS (forward, 5′-AAACCCCAGGTGCTATTCCC-3′; reverse, 5′-TGGGTCCTCTGGTCAAACTC-3′), COX-2 (forward, 5′-ATTCCAAACCAGCAGACTCATA-3′; reverse, CTTGAGTTTGAAGTGGTAACCG-3′), and GAPDH (forward, 5′- GTCATTGAGAGCAATGCCAG-3′; reverse, 5′-GTGTTCCTACCCCCAATGTG-3′). […]
(§2) RAW264.7 cells with the indicated treatment were harvested and treated in a RIPA lysis buffer (Beyotime, Shanghai, China) containing a protease and phosphatase inhibitor cocktail (Beyotime, Shanghai, China) to obtain the lysates. Then, the total proteins were measured using the bicinchoninic acid (BCA) protein assay kit (Beyotime, Shanghai, China) and regulated by a loading buffer and the RIPA lysis buffer. […] Finally, the protein bands were detected using the ImageJ software (Bio-Rad, Hercules, CA, United States).

[2] = Cytotoxicity against RAW264.7 cells (CCK8); details: mouse, 24 h incubation, 3.125–200 μM
Procedure: For the cytotoxicity assay, RAW 264.7 cells were grown in DMEM containing 10% FBS and cultured at 37°C. Then, the cells were seeded in a 96-well plate (1 × 10^4 cells/well) before the cells were incubated for 24 h in various concentrations of compounds (3.125–200 μM). Cell viability was examined using a CCK8-kit. The CCK8 solution (5 µl) was added to each well and incubated for 1–2 h at 37°C. The OD value at 450 nm was quantified by Graphpad software, and the corresponding 50% cytotoxic concentration (CC50) of the compounds was subsequently obtained.

iNOS = iNOS expression in LPS-induced RAW264.7 cells (quantitative real-time PCR and Western blotting); details: LPS-induced RAW264.7 macrophages; qPCR and Western blotting; compound 1 at 4 μM compared with dexamethasone
Procedure: as §1, §2

Compound	NO production inhibitory effect, in words (ranking / comparison with positive control dexamethasone) ([1]; LPS-stimulated RAW264.7 cells)	IC50 [1] [µM]	expression of COX-2 (COX-2)	CC50 at 24 h [2] [µM]	expression of iNOS (iNOS)
C=C1C(=O)O[C@H]2[C@H]1[C@@H](OC(=O)/C(C)=C\C)C=C(C)[C@]1(O)CC=C(C)[C@H]21 [Compound 1, Artemvulactone H]	most active	1.1 ± 0.1	reduced more expressions of iNOS and COX-2 than the positive drug; also recorded: suppressed	> 10	reduced more expressions of iNOS and COX-2 than the positive drug; also recorded: suppressed
C=C1C(=O)O[C@H]2[C@H]1[C@@H](OC(=O)C(C)CC)C=C(C)[C@]1(O)CC=C(C)[C@H]21 (stereo partly drawn) [Compound 2, Artemvulactone I]		1.2 ± 0.3		> 10	
C=C1C(=O)O[C@H]2[C@H]1[C@@H](OC(=O)CC(C)C)C=C(C)[C@]1(O)CC=C(C)[C@H]21 [Compound 3, Artemvulactone J]		2.8 ± 0.1		> 10	
C=C1C(=O)O[C@H]2[C@H]1[C@@H](OC(=O)CC(C)C)CC(=C)[C@]1(O)CC=C(C)[C@H]21 [Compound 4, Artemvulactone K]		3.6 ± 0.1		> 20	
C=C1CC(OC(=O)C(C)=CC)C2C(C)C(=O)OC2C2C(C)=CCC12O (stereo not drawn) [Compound 5, Artemvulactone L]		> 10		> 100	
C=C1C(=O)O[C@H]2[C@H]1[C@@H](OC(=O)C(C)C)CC(=C)[C@]1(O)C[C@H]3O[C@@]3(C)[C@H]21 [Compound 6, Artemvulactone M]		3.1 ± 0.1		> 20	
C=C1C(=O)O[C@H]2[C@H]1[C@@H](OC(=O)/C(C)=C\C)CC(=C)[C@]1(O)CC=C(C)[C@H]21 [Compound 7, Artemvulactone N]		2.1 ± 0.6		> 20	
C=C1C(=O)O[C@H]2[C@H]1[C@@H](OC(=O)C(C)C)C=C(C)[C@]1(O)C[C@H]3O[C@@]3(C)[C@H]21 [Compound 8, Artemvulactone O]		3.2 ± 0.1		> 20	
C=C1C(=O)O[C@@H]2[C@H]3C(C)=CC(=O)C3=C(C)C[C@H](OC(=O)CC)[C@@H]12 [Compound 9, Artemvulactone P]		1.9 ± 0.8		> 20	
C=C1C(=O)OC2C1C(OC(=O)CC)CC(C)(OC)C1C(=O)C=C(C)C21 (stereo not drawn) [Compound 10, Artemvulactone Q]		2.1 ± 0.1		> 10	
C=C1C(=O)O[C@H]2[C@H]1[C@@H](OC(=O)CC)C=C(C)[C@]1(O)C[C@H]3O[C@@]3(C)[C@H]21 [Compound 11, Artemvulactone R]		1.9 ± 0.4		> 15	
C=C1C(=O)OC2C1CCC(C)(O)C1(O)C(Cl)C3OC3(C)C21 (stereo not drawn) [Compound 12, Artemvulactone S]		2.7 ± 0.5		> 40	
C=C1C(=O)O[C@H]2[C@H]1[C@@H](OC(=O)C(C)CC)CC(=C)[C@]1(O)CC=C(C)[C@H]21 (stereo partly drawn) [Compound 13, 1α-hydroxy-8α-methylbutyroxy-3(4),10(14),11(13)-trienguai-12,6α-olide]		1.5 ± 0.1		> 15	
C=C1C(=O)O[C@H]2[C@H]1[C@@H](OC(=O)C=C(C)C)CC(=C)[C@]1(O)CC=C(C)[C@H]21 [Compound 14, 1α-hydroxy-8α-senecioyloxy-3(4),10(14),11(13)-trienguai-12,6α-olide]		1.4 ± 0.2		> 15	
C=C1C(=O)O[C@H]2[C@H]1[C@@H](OC(=O)/C(C)=C/C)CC(=C)[C@]1(O)CC=C(C)[C@H]21 [Compound 15, 8-epi-Tiglylrupicolin B]		1.2 ± 0.1		> 10	
C=C1C(=O)O[C@H]2[C@H]1[C@@H](OC(=O)/C(C)=C\C)CC(=C)[C@]1(O)C[C@H]3O[C@@]3(C)[C@H]21 [Compound 16, 8-angeloyloxy-1α-hydroxy-3α, 4α-epoxy-5α, 7αH-10(14), 11(13)-guaiadien-12,6α-olide]		1.1 ± 0.2		> 10	
C=C1C(=O)O[C@H]2[C@H]1[C@@H](OC(=O)C(C)C)CC(=C)[C@]1(O)CC=C(C)[C@H]21 [Compound 17, 8-epi-isobutyrylrupicolin B]		1.5 ± 0.1		> 20	
C=C1C(=O)O[C@H]2[C@H]1[C@@H](OC(=O)C(C)C)C=C(C)[C@]1(O)CC=C(C)[C@H]21 [Compound 18, 8-epi-isobutyrylrupicolin]		1.1 ± 0.1		> 20	
C=C1C(=O)O[C@H]2[C@H]1[C@@H](OC(=O)CC(C)C)CC(=C)[C@]1(O)C[C@H]3O[C@@]3(C)[C@H]21 [Compound 19, 3α,4α-epoxyrupicolin E]		1 ± 0.2		> 25	
C=C1C(=O)O[C@@H]2[C@H]3C(C)=CC(=O)C3=C(C)CC[C@@H]12 [Compound 20, dehydroleucodine]		1.8 ± 0.1		> 70	
C=C1C(=O)O[C@H]2[C@H]1[C@@H](OC(C)=O)CC(C)=C1C[C@H]3O[C@@]3(C)[C@@H]12 [Compound 21, (+)-Arteglasin A]		1.2 ± 0.2		> 20	
C=C1C(=O)O[C@@H]2[C@H]3C(C)=CC(=O)C3=C(C)C[C@H](OC(C)=O)[C@@H]12 [Compound 22, Dehydromatricarin]		1.8 ± 0.2		> 10	
C[C@@H]1C[C@H]2[C@@H]3CCC4=CC(=O)C=C[C@]4(C)[C@@]3(F)[C@@H](O)C[C@]2(C)[C@@]1(O)C(=O)CO [Dexamethasone, reference compound]		4.3 ± 0.3			
